Literature values, collected in patent publication US20070092567A1 (GALEPHAR M/F, priority 2001, published 2007).
Entries after “also recorded” stand apart in the source; their conditions may differ. Each block holds one molecule with its values, some of them ahead of it.

Columns and labels:
cytochrome P450 3A4 = cytochrome P450 3A4 (Homo sapiens, UniProt P08684)
[1] = biological target: cytochrome P450 2C9 isoenzyme (Homo sapiens, UniProt P11712)
[2] = not given; remark: listed apart in the source

Sequence of cytochrome P450 2C9 isoenzyme (P11712 whole entry): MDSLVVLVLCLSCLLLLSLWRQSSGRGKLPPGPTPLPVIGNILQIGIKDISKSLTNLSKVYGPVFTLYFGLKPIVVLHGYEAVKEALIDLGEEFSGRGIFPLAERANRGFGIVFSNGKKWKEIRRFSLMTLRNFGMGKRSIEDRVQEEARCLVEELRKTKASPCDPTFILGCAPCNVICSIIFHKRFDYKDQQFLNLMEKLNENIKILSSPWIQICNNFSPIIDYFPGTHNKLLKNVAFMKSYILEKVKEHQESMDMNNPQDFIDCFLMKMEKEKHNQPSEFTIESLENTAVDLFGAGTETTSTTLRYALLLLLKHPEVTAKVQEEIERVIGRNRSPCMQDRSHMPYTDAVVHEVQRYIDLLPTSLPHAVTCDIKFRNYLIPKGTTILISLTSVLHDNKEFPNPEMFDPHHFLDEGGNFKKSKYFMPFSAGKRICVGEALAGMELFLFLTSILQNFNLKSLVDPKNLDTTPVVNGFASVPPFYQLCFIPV
Sequence of cytochrome P450 3A4 (P08684 whole entry): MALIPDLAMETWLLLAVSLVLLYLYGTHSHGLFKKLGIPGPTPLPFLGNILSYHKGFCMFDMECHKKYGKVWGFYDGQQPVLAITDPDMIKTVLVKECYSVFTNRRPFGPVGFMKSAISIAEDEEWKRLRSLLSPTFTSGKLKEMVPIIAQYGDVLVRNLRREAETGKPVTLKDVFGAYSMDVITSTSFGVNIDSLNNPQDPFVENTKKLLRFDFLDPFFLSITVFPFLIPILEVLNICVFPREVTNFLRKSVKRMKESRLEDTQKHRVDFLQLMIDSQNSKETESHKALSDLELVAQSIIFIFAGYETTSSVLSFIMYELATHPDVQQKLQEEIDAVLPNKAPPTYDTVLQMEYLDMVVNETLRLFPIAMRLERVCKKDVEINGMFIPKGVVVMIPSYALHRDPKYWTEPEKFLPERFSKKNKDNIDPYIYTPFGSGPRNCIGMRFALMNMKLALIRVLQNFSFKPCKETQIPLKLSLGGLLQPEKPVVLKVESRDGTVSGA

metabolisation by cytochrome P450 3A4 (cytochrome P450 3A4): not metabolised by cytochrome P450 3A4
metabolisation by cytochrome P450 2C9 isoenzyme [1]: only weakly metabolised
Structure (SMILES): CC(C)OC(=O)C(C)(C)Oc1ccc(C(=O)c2ccc(Cl)cc2)cc1 [Fenofibrate, p-(4-chlorobenzoyl)-phenoxy isobutyrate isopropyl ester]

mean plasma half-life (healthy, fasting young adults): 19.6 to 26.6 h
eliminated in the urine as fenofibric acid ester glucuronide (in vivo): 60-88%
Peak plasma levels (single oral dose of 300 mg fenofibrate): 6 to 9.5 mg/L
Structure (SMILES): CC(C)(Oc1ccc(C(=O)c2ccc(Cl)cc2)cc1)C(=O)O [fenofibric acid]

average oral absorption ([2]; based on urinary recovery of radiolabeled drug): 34%
decrease of systemic bioavailability following a bedtime dose compared to morning administration ([2]; human, in vivo): 60%
Structure (SMILES): CC[C@H](C)C(=O)O[C@H]1C[C@H](O)C=C2C=C[C@H](C)[C@H](CC[C@@H](O)C[C@@H](O)CC(=O)O)[C@H]21 [pravastatin]
metabolisation through the cytochrome P450 system (cytochrome P450 system): not metabolised through the cytochrome P450 system; also recorded: does not involve the cytochrome P450 system
